Results as given in article PMC9127068 (ChemMedChem, 2022).

Molecular target: T1, 5-HT1A receptor (5-HT1AR) (Homo sapiens, UniProt P08908)
T1 sequence (P08908 1-422): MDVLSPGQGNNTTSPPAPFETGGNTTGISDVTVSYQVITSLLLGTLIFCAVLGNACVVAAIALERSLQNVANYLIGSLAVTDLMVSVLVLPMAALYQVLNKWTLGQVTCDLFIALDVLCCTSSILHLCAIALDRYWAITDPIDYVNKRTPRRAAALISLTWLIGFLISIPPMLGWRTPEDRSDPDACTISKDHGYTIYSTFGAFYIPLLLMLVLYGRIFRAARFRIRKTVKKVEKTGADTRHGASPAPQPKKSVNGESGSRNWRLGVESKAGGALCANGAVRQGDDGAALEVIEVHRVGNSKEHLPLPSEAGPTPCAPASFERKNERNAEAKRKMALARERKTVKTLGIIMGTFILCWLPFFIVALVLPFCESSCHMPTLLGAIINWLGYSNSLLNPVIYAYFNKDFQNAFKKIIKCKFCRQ
Assay: radioligand displacement of [3H]-8-OH-DPAT
Format: binding

Ki [nM] | Compound
1.8 | CCCN(CCCCCCNS(=O)(=O)c1cccc2c(N(C)C)cccc12)C1CCc2cccc(O)c2C1 (centres unmarked) [5a]
10 | CCCN(CCCCCCNc1ccc([N+](=O)[O-])c2nonc12)C1CCc2cccc(O)c2C1 (centres unmarked) [5b]
